Measured values as given in paper PMC4467461, “Small-molecule activation of SERCA2a SUMOylation for the treatment of heart failure” (Nature Communications, 2015).

Test system: isolated adult cardiomyocytes
Test: Cardiomyocyte contractility and calcium transient, video-based edge-detection system (IonOptix)
Format: cell-based, Sprague–Dawley rats
Protocol: Figure 1 N106 increases SERCA2a’s cellular activity and SUMOylation in adult cardiomyocytes. In-vitro characterization of activators of SERCA2a SUMOylation. Cell-based screening of small molecules identified one promising compound. Adult ventricular cardiomyocytes were isolated from Sprague–Dawley rats and treated with small molecules on dose-dependent manner for 24 h. DMSO-treated cardiomyocytes were used as a negative control. (a) Chemical structure of SERCA2a SUMOylation activator. N106, N-(4-methoxybenzo[d]thiazol-2-yl)-5-(4-methoxyphenyl)-1,3,4-oxadiazol-2-amine. (b-g) The effects of N106 compound in cardiomyocyte contractility and calcium transient. The dose-dependent effects of N106 compound presented on peak shortening, the time to maximal departure velocity, the time to maximal return velocity, calcium ratio, decay time constant (τ) and the time to 90% baseline (t90) fluorescence in cardiomyocytes were assessed using a video-based edge-detection system (IonOptix Inc.). n=25 cardiomyocytes from each three of hearts per condition. (h) The effects of N106 compound on the ATPase activity of SERCA2a. The ATPase activity were measured at 25 °C in 50 mM MOPS, 100 mM KCl, 5 mM MgCl2, 1 mM […] at pCa 5.0 by using a coupled enzyme system consisting of pyruvate kinase and lactate dehydrogenase, and monitoring the oxidation of the reduced form of NADH at […]. The enzyme activity was determined by using same set of cardiomyocytes. (i) The effect of N106 compound for the formation of SUMOylated SERCA2a was determined using the same set of cardiomyocytes. Endogenous SERCA2a SUMOylation was detected by immunoprecipitation with anti-SERCA2a and then western blotting with anti-SUMO-1 antibodies. The experiments shown are representative of three independent experiments with similar results. (j) The effect of N106 compound on global SUMOylation was measured by western blot analysis with an anti-SUMO-1 antibody in the same set of cardiomyocytes. The experiments shown are representative of three independent western blottings. Data are represented as mean±s.e.m. (n=3 mice hearts per each condition). Data are represented as mean±s.e.m. *P≤0.05; **P<0.001 (Student’s t-test) from DMSO control.
Figure 2 Time-course experiments with N106 in isolated adult cardiomyocytes. (a–f) Adult ventricular cardiomyocytes were isolated from Sprague–Dawley rats and treated with 10 μM of N106 compound over a time course as indicated. The time course of the contractile response to N106 was determined as peak shortening (a), the time to maximal velocity of sarcomere shortening (b) and re-lengthening (c). The time-course changes in calcium kinetic parameters such as calcium transient (d), decay time constant (e) and the time to 90% baseline fluorescence in cardiomyocytes (f) were detected. n=25 cardiomyocytes from each three of hearts per condition. DMSO was used as vehicle control. The time courses of the ATPase activity of SERCA2a (g), level of SUMOylated SERCA2a (h) and level of SUMO-1 conjugates (i) were determined by using the same set of cardiomyocytes (two independent experiments). Data are represented as mean±s.e.m. *P≤0.05; **P<0.001 (Student’s t-test) from DMSO control.
Ventricular heart muscle cells were isolated from 180∼250 g male Sprague–Dawley rats as described. The hearts were perfused sequentially with low-calcium buffer, enzyme solutions containing collagenases and proteases, and high-potassium solution. Next, the hearts were minced, filtered and resuspended in high-potassium solution. The cardiomyocytes were plated on laminin-coated plates and cultured in medium M199 (Life Technologies, CT, USA) containing proper supplements. […]

[1] = screen of eight compounds, 10 μM, 24 h

## COc1ccc(-c2nnc(Nc3nc4c(OC)cccc4s3)o2)cc1 [Compound N106, N-(4-methoxybenzo[d]thiazol-2-yl)-5-(4-methoxyphenyl)-1,3,4-oxadiazol-2-amine]
10 μM, 24 h
  inotropic effect in isolated cardiomyocytes: positive inotropic effects
At over 50 μM concentration
  positive effect on cardiomyocytes contractility: no longer observed
dose–response, 10 nM, 24 h
  Calcium-transient amplitude: 0.18±0.01
  exponential decay of time constant, τ: 0.20 ± 0.01 s
  maximal velocities of cell contraction: −1.93±0.08 μm s^−1
  maximal velocities of cell relaxation: 1.76±0.08 μm s^−1
  peak shortening: 7.63±0.48%
  time for 90% decay, t90: 0.47 ± 0.02 s
dose–response, 100 nM, 24 h
  Calcium-transient amplitude: 0.21±0.01
  exponential decay of time constant, τ: 0.20 ± 0.01 s
  maximal velocities of cell contraction: −2.17±0.10 μm s^−1
  maximal velocities of cell relaxation: 1.98±0.12 μm s^−1
  peak shortening: 8.36±0.56%
  time for 90% decay, t90: 0.44 ± 0.02 s
dose–response, 10 μM, 24 h
  Calcium-transient amplitude: 0.19±0.00
  exponential decay of time constant, τ: 0.16 ± 0.008 s
  maximal velocities of cell contraction: −2.30±0.19 μm s^−1
  maximal velocities of cell relaxation: 1.99±0.15 μm s^−1
  peak shortening: 9.10±0.52%
  time for 90% decay, t90: 0.35 ± 0.006 s
[1]
  peak shortening: 12.03±0.80%
  transient calcium decay τ: 0.18 ± 0.02 s
Time course, 10 μM, 10 min
  calcium amplitude (ratio 360/380 nm): 0.19±0.01
  maximal velocities of cell contraction: −1.97±0.04 μm s^−1
  maximal velocities of cell relaxation: 1.12±0.11 μm s^−1
  peak shortening: 9.65±0.27%
  t90: 0.40 ± 0.03 s
  τ: 0.17 ± 0.02 s
Time course, 10 μM, 1 h
  maximal velocities of cell contraction: −1.92±0.09 μm s^−1
  maximal velocities of cell relaxation: 1.67±0.15 μm s^−1
  peak shortening: 8.60±0.23%
  t90: 0.35 ± 0.01 s
  τ: 0.14 ± 0.02 s
Time course, 10 μM, 1 h (P=0.17)
  calcium amplitude (ratio 360/380 nm): 0.17±0.01
Time course, 10 μM, 24 h
  calcium amplitude (ratio 360/380 nm): 0.18±0.008
  maximal velocities of cell contraction: −2.3±0.19 μm s^−1
  maximal velocities of cell relaxation: 1.99±0.15 μm s^−1
  peak shortening: 8.90±0.38%
  t90: 0.35 ± 0.006 s
  τ: 0.16 ± 0.008 s
